Paper PMC6018746, “Activation of the p53-MDM4 regulatory axis defines the anti-tumour response to PRMT5 inhibition through its role in regulating cellular splicing” (Scientific Reports, 2018)
“And” between values parts separate entries of the source, which are not always exact repeats. Identical values can stand only once. Like-named read-outs stand apart in the source and are kept apart here.

Test system: panel of hematologic and solid cancer lines
Assay: 6-day in vitro growth/death assay
Format: cell-based, human
Conditions: for IC50: read-out: gIC50
Protocol: To further develop these molecules and to guide clinical strategy, it was necessary to understand sensitivity in preclinical models by assessing the anti-tumour activity of the PRMT5 inhibitors in various cancers.
Cell lines were obtained from ATCC or DSMZ and were grown in recommended medium, which was most frequently RPMI-1640 containing 10% FBS. Cell line proliferation assays, Western blotting, qRT-PCR, and cell cycle analyses were performed as described previously[27],[28]. Antibody and gene expression reagents are as described in Supplementary Table 16. All studies were conducted in accordance with the GSK Policy on the Care, Welfare and Treatment of Laboratory Animals and were reviewed by the Institutional Animal Care and Use Committee either at GSK or by the ethical review process at the institution where the work was performed. Detailed descriptions of all methods can be found in the Supplemental Materials.

## CC(=O)N1CCC(Nc2cc(C(=O)NC[C@H](O)CN3CCc4ccccc4C3)ncn2)CC1 [GSK3326595]
5637
  IC50: 69 nM
HCC70
  IC50: 130 nM
HCC1143
  IC50: 246 nM
HCC1806
  IC50: 98 nM
Homo sapiens, 5637
  IC50: 69.3 nM
Homo sapiens, HCC70, HCC70
  IC50: 130 nM
Homo sapiens, HCC1143, HCC1143
  IC50: 246 nM
Homo sapiens, HCC1806, HCC1806
  IC50: 97.6 nM
Homo sapiens, HCC1954, HCC1954
  IC50: 79.2 nM
Homo sapiens, HT-1376, HT-1376
  IC50: 17600 nM
Homo sapiens, J82, J82
  IC50: 29300 nM
Homo sapiens, JM1, JM1
  IC50: 79 nM
Homo sapiens, KMS-11, KMS-11
  IC50: 66.5 nM
Homo sapiens, LN-229, LN-229
  IC50: 254 nM
Homo sapiens, LP-1, LP1
  IC50: 1940 nM
Homo sapiens, MCF7, MCF-7
  IC50: 61.7 nM
Homo sapiens, MDA-MB-231, MDA-MB-231
  IC50: 544 nM
Homo sapiens, MDA-MB-453, MDA-MB-453
  IC50: 28.7 nM
Homo sapiens, MDA-MB-468, MDA-MB-468
  IC50: 56.5 nM
Homo sapiens, MINO
  IC50: 130 nM
Homo sapiens, Maver1, MAVER-1
  IC50: 84.9 nM
Homo sapiens, NCI-H526, NCI-H526
  IC50: 275 nM
Homo sapiens, NCI-H526-R
  IC50: 344 nM
Homo sapiens, NU-DHL-1, NU-DHL-1
  IC50: 333 nM
Homo sapiens, NU-DUL-1, NU-DUL-1
  IC50: 333 nM
Homo sapiens, PER-403, PER-403
  IC50: 38.3 nM
Homo sapiens, PER-624
  IC50: 524 nM
Homo sapiens, PER-704
  IC50: 658 nM
Homo sapiens, Pfeiffer
  IC50: 421 nM
Homo sapiens, RCK8, RCK8
  IC50: 529 nM
Homo sapiens, RL
  IC50: 11.8 nM
Homo sapiens, RPMI-8226, RPMI-8226
  IC50: 21.7 nM
Homo sapiens, RPMI-8226-DOX
  IC50: 29300 nM
Homo sapiens, RPMI-8226-LR5
  IC50: 286 nM
Homo sapiens, SCaBER
  IC50: 198 nM
Homo sapiens, SF-295, SF295
  IC50: 24700 nM
Homo sapiens, SF-539, SF539
  IC50: 60.9 nM
Homo sapiens, SK-BR-3, SK-BR-3
  IC50: 73.1 nM
Homo sapiens, SU-DHL10, SU-DHL-10
  IC50: 36.7 nM
Homo sapiens, SU-DHL-2, SU-DHL-2
  IC50: 34.1 nM
Homo sapiens, SU-DHL-4, SU-DHL-4
  IC50: 492 nM
Homo sapiens, SU-DHL-5, SU-DHL-5
  IC50: 28.3 nM
Homo sapiens, SU-DHL-6, SU-DHL-6
  IC50: 3.9 nM
Homo sapiens, SU-DHL-8, SU-DHL-8
  IC50: 52.5 nM
Homo sapiens, SU-DHL-16, SU-DHL-16
  IC50: 98.9 nM
Homo sapiens, SW780, SW-780
  IC50: 290 nM
Homo sapiens, T-24, T24
  IC50: 765 nM
Homo sapiens, U2932, U2932
  IC50: 52.5 nM
Homo sapiens, U-87 MG
  IC50: 39.6 nM
Homo sapiens, U-2940, U2940
  IC50: 14800 nM
Homo sapiens, UMUC3, UM-UC-3
  IC50: 29300 nM
Homo sapiens, WSU-NHL
  IC50: 8.4 nM
Homo sapiens, WSUDLCL2, WSU-DLCL2
  IC50: 81.7 nM
Homo sapiens, ZR-75-1, ZR-75-1
  IC50: 11000 nM
J82
  IC50: 29300 nM
KMS-11
  IC50: 66 nM
LN-229
  IC50: 254 nM
LP1
  IC50: 1940 nM
MAVER-1
  IC50: 85 nM
MDA-MB-231
  IC50: 544 nM
MDA-MB-453
  IC50: 29 nM
MDA-MB-468
  IC50: 57 nM
MINO
  IC50: 130 nM and > 100 nM
NCI-H526-R
  IC50: 344 nM
NCI-H526
  IC50: 275 nM
PER-403
  IC50: 38 nM
PER-624
  IC50: 524 nM
PER-704
  IC50: 658 nM
RCK8
  IC50: 529 nM
RL
  IC50: 14 nM
SF295
  IC50: 24700 nM
SF539
  IC50: 61 nM
SK-BR-3
  IC50: 73 nM
SU-DHL-2
  IC50: 28 nM
SU-DHL-4
  IC50: 492 nM
SU-DHL-6
  IC50: 4 nM
SU-DHL-8
  IC50: 53 nM
SU-DHL-10
  IC50: 54 nM
SU-DHL-16
  IC50: 99 nM
ScaBER
  IC50: 198 nM
T24
  IC50: 765 nM
U2932
  IC50: 53 nM
U2940
  IC50: 10200 nM
U-87MG
  IC50: 40 nM
WSU-DLCL2
  IC50: 82 nM
WSU-NHL
  IC50: 8 nM
Z-138
  gIC100: 80.7 nM
